Several values for one entry are separate records, joined by “and”; a condition that tells them apart may be missing. Identical values can stand only once.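 Exposure lasted 48 hours, with cells grown in 96-well plates and compounds tested at five concentrations. GI50 marks 50% less growth. At the TGI there is no net growth.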
Tests used:
Test in all cases: growth of human tumour cells (NCI), 48 h
[1] = system: SNB-75 CNS
[2] = system: OVCAR-8 ovarian
[3] = system: SK-MEL-28 melanoma
[4] = system: UACC-62 melanoma
[5] = system: UACC-257 melanoma
[6] = system: ACHN renal
[7] = system: NCI-H23 lung
[8] = system: UO-31 renal
[9] = system: SNB-19 CNS
[10] = system: NCI-H460 lung

Nc1nc2c(ncn2C2OC(CO)C(O)C2N)c(=O)[nH]1 (stereo not drawn)
TGI [1]: > 100 µM | TGI [2]: > 100 µM | TGI [3]: > 100 µM | TGI [4]: > 100 µM | TGI [5]: > 100 µM | TGI [6]: > 100 µM | TGI [7]: > 100 µM | TGI [8]: > 100 µM | TGI [9]: > 100 µM | TGI [10]: > 100 µM

CCCS(=O)(=O)Nc1ccc(F)c(C(=O)c2c[nH]c3ncc(-c4ccc(Cl)cc4)cc23)c1F
GI50 [1]: 2.48 µM and 2.38 µM | TGI [1]: 16.6 µM and > 10 µM | GI50 [2]: 6.16 µM and > 8.65 µM | TGI [2]: 43.6 µM and > 10 µM | GI50 [3]: 0.0369 µM and 0.0422 µM | TGI [3]: 2.98 µM and 0.696 µM | GI50 [4]: 0.0241 µM and 0.034 µM | TGI [4]: 0.496 µM and 0.485 µM | GI50 [5]: 0.0485 µM and 0.0643 µM | TGI [5]: 3.71 µM and 0.604 µM | GI50 [6]: 3.92 µM and 4.77 µM | TGI [6]: 15.9 µM and > 10 µM | GI50 [7]: 7.82 µM and > 10 µM | TGI [7]: 26.6 µM and > 10 µM | GI50 [8]: 4.96 µM and 4.79 µM | TGI [8]: 15.1 µM and > 10 µM | GI50 [9]: 6.56 µM and > 10 µM | TGI [9]: 29.6 µM and > 10 µM | GI50 [10]: 3.01 µM and 5 µM | TGI [10]: 14 µM and > 10 µM

S=c1nc(-c2ccccc2)oc(=NC2CCCCC2)n1C1CCCCC1
GI50 [1]: 4.65 µM | TGI [1]: 17.5 µM | GI50 [2]: 3.22 µM | TGI [2]: 18.5 µM | GI50 [3]: 14.3 µM | TGI [3]: 30.2 µM | GI50 [4]: 5.92 µM | TGI [4]: 21 µM | GI50 [5]: 2.31 µM | TGI [5]: 5.98 µM | GI50 [6]: 4.14 µM | TGI [6]: 14.2 µM | GI50 [7]: 4.21 µM | TGI [7]: 19.6 µM | GI50 [8]: > 100 µM | TGI [8]: > 100 µM | GI50 [9]: 5.05 µM | TGI [9]: 17.4 µM | GI50 [10]: 2.93 µM | TGI [10]: 10.2 µM

COc1ccc(SC2c3cc(OC)c(OC)cc3Oc3nc(N)c(C#N)c(N)c32)cc1 (stereo not drawn)
GI50 [1]: 1.31 µM | TGI [1]: 2.62 µM | GI50 [2]: 1.69 µM | TGI [2]: 3.18 µM | GI50 [3]: 1.47 µM | TGI [3]: 2.91 µM | GI50 [4]: 0.449 µM | TGI [4]: 1.74 µM | GI50 [5]: 1.87 µM | TGI [5]: 3.32 µM | GI50 [6]: 1.74 µM | TGI [6]: 3.12 µM | GI50 [7]: 1.45 µM | TGI [7]: 3.01 µM | GI50 [8]: 1.34 µM | TGI [8]: 2.61 µM | GI50 [9]: 1.32 µM | TGI [9]: 2.64 µM | GI50 [10]: 1.66 µM | TGI [10]: 4.38 µM

CC(=O)OCC1OC(OC2C(COC(C)=O)OC(OCCC[S-])C(OC(C)=O)C2OC(C)=O)C(OC(C)=O)C(OC(C)=O)C1OC(C)=O.[Au+].c1ccc(CN2[CH-]N(Cc3ccccc3)C(c3ccccc3)=C2c2ccccc2)cc1 (stereo not drawn)
GI50 [1]: 2.86 µM | TGI [1]: 17 µM | GI50 [2]: 3.75 µM | TGI [2]: > 100 µM | GI50 [3]: 3.53 µM | TGI [3]: 18.5 µM | GI50 [4]: 2.63 µM | TGI [4]: 8.96 µM | GI50 [5]: 3.44 µM | TGI [5]: 10.4 µM | GI50 [6]: 2.9 µM | TGI [6]: 10.6 µM | GI50 [7]: 3.23 µM | TGI [7]: 14 µM | GI50 [8]: 2.61 µM | TGI [8]: 10.7 µM | GI50 [9]: 3.66 µM | TGI [9]: 15.2 µM | GI50 [10]: 3.45 µM | TGI [10]: 12.8 µM

COC(=O)c1c[nH]c(=O)[nH]c1=O
TGI [1]: > 100 µM | TGI [2]: > 100 µM | TGI [3]: > 100 µM | TGI [4]: > 100 µM | TGI [5]: > 100 µM | TGI [6]: > 100 µM | TGI [7]: > 100 µM | TGI [8]: > 100 µM | TGI [9]: > 100 µM | TGI [10]: > 100 µM

COc1cc(C)c(C(=O)O[C@H]2[C@H](O[C@H]3[C@@H](O)COC(O[C@H]4C[C@H]5[C@@H]6CC=C7C[C@@H](O)CC[C@]7(C)[C@H]6CC[C@]5(C)[C@H]4[C@H](C)C(=O)CCC(C)C)[C@@H]3OC(C)=O)OC[C@@H](O)[C@@H]2O)c(C)c1 (stereo partly drawn)
GI50 [1]: < 0.01 µM | TGI [1]: 7.71 µM | GI50 [2]: 10.3 µM | TGI [2]: > 100 µM | GI50 [3]: < 0.01 µM | TGI [3]: 0.0192 µM | GI50 [4]: < 0.01 µM | TGI [4]: < 0.01 µM | GI50 [5]: 0.021 µM | TGI [5]: 0.0738 µM | GI50 [6]: 0.0767 µM | TGI [6]: 18.6 µM | GI50 [7]: 0.384 µM | TGI [7]: 14.2 µM | GI50 [8]: < 0.01 µM | TGI [8]: 0.0584 µM | GI50 [9]: < 0.01 µM | TGI [9]: 4.93 µM | GI50 [10]: < 0.01 µM | TGI [10]: 1.74 µM

O=C1NC(=O)/C(=C/C=C/c2ccccc2)S1
GI50 [1]: 5.25 µM | TGI [1]: 40.3 µM | GI50 [2]: 3.48 µM | TGI [2]: > 100 µM | GI50 [3]: 15.5 µM | TGI [3]: 36 µM | GI50 [4]: 0.49 µM | TGI [4]: 27 µM | GI50 [5]: 5.43 µM | TGI [5]: > 100 µM | GI50 [6]: 0.655 µM | TGI [6]: > 37 µM | GI50 [7]: 1.74 µM | TGI [7]: > 41.4 µM | GI50 [8]: 2.81 µM | TGI [8]: 30.4 µM | GI50 [9]: 1.42 µM | TGI [9]: 20.3 µM | GI50 [10]: 2.83 µM | TGI [10]: 13.8 µM

Nc1ccc(-c2nc3ccc4[nH]ncc4c3c3c2CCCC3)cc1F
GI50 [1]: 1.35 µM | TGI [1]: 3.42 µM | GI50 [2]: 1.57 µM | TGI [2]: 21.6 µM | GI50 [3]: 1.81 µM | TGI [3]: 6.86 µM | GI50 [4]: 1.19 µM | TGI [4]: 6.71 µM | GI50 [5]: 1.92 µM | TGI [5]: 10.7 µM | GI50 [6]: 0.316 µM | TGI [6]: 15.5 µM | GI50 [7]: 1.54 µM | TGI [7]: 7.96 µM | GI50 [8]: 1.01 µM | TGI [8]: 5.53 µM | GI50 [9]: 2.48 µM | TGI [9]: 32.1 µM | GI50 [10]: 0.959 µM | TGI [10]: 8.51 µM

COc1ccccc1/C=C\c1cnnc2ccccc12
TGI [1]: > 10 µM | TGI [2]: > 10 µM | TGI [3]: > 10 µM | TGI [4]: > 10 µM | TGI [5]: > 10 µM | TGI [6]: > 10 µM | TGI [7]: > 10 µM | TGI [9]: > 10 µM | TGI [10]: > 10 µM

CN(C)CCCNc1nn2c(=O)c3ccccc3nc2c2ccccc12
GI50 [1]: 2.73 µM | TGI [1]: 51.1 µM | GI50 [2]: 7.08 µM | TGI [2]: 40.7 µM | GI50 [3]: 15.8 µM | TGI [3]: 29.3 µM | GI50 [5]: 16 µM | TGI [5]: 32.6 µM | GI50 [6]: 3.75 µM | TGI [6]: 15 µM | GI50 [7]: 5.89 µM | TGI [7]: 24.7 µM | GI50 [8]: 3.55 µM | TGI [8]: 18.2 µM | GI50 [9]: 13.2 µM | TGI [9]: 43.9 µM | GI50 [10]: 3.35 µM | TGI [10]: 13.6 µM

COc1cc(-c2cc(-c3ccc(N(C)C)cc3)nc(N3CCOCC3)c2C#N)cc(OC)c1OC
GI50 [1]: 13.3 µM | TGI [1]: > 76.9 µM | GI50 [2]: 1.27 µM | TGI [2]: > 100 µM | GI50 [3]: 0.433 µM | TGI [3]: 5.68 µM | GI50 [4]: 0.628 µM | TGI [4]: 1.71 µM | GI50 [5]: 1.18 µM | TGI [5]: > 82.9 µM | GI50 [6]: 1.02 µM | TGI [6]: > 100 µM | GI50 [7]: 6.66 µM | TGI [7]: > 100 µM | GI50 [8]: 6.85 µM | TGI [8]: > 60.8 µM | GI50 [10]: 0.289 µM | TGI [10]: > 61.6 µM

O=C(/C=C/c1ccc(C(F)(F)F)cc1)c1ccc(Nc2nc(NCCO)nc(NCCO)n2)cc1
GI50 [1]: 2.31 µM | TGI [1]: 13.6 µM | GI50 [2]: 3.31 µM | TGI [2]: 20.2 µM | GI50 [3]: 3.45 µM | TGI [3]: 13 µM | GI50 [4]: 2.13 µM | TGI [4]: 6.03 µM | GI50 [5]: 10.3 µM | TGI [5]: 23.4 µM | GI50 [6]: 4.38 µM | TGI [6]: 15.6 µM | GI50 [7]: 3.85 µM | TGI [7]: 17.4 µM | GI50 [8]: 1.54 µM | TGI [8]: 4.33 µM | GI50 [10]: 3.23 µM | TGI [10]: 10.6 µM
